The subject of one assay is OVCAR. Kind of assay: Growth inhibition of human OVCAR cells at 50 ug/mL by MTT assay. It is filed as functional. To be noted: read-out: GI.
A further assay relates to MCF7. The assay can be described thus: Growth inhibition of human MCF7 cells at 50 ug/mL by MTT assay. In kind it is functional. The conditions noted are these: read-out: GI. On the technique in general: Formazan colour is commonly taken as a measure of viable cells.

`C=CC(C)(CC/C=C(\C)C(=O)O)O[C@@H]1O[C@H](CO)[C@@H](OC(C)(C=C)CC/C=C(/C)C(=O)O)[C@H](O)[C@H]1O` (some centres undefined): the values for the inhibition of growth at 50 µg/mL with OVCAR and in the assay on MCF7 were 77.7% and 98.9%, respectively.
The matching figures for `C=CC(C)(CC/C=C(\C)C(=O)O)O[C@@H]1O[C@@H](C)[C@H](OC(C)(C=C)CC/C=C(\C)C(=O)O)[C@@H](O)[C@H]1O` (some centres undefined): 66.5% and 68.2%.

The record behind these values is ChEMBL document CHEMBL3352545, “Two new unusual monoterpene acid glycosides from Acacia cyclops with potential cytotoxic activity” (2014).
